From patent publication US20220081412A1, “QUINOLINYL-PYRAZINE-CARBOXAMIDE COMPOUNDS AND USES THEREOF” (The Regents of the University of Michigan, priority 2018, published 2022)

Tested on: MIA PaCa-2 cells
Assay: Bru-seq analysis for nascent RNA synthesis (log2FC of genes, GSEA gene sets)
Type: cell-based, human
Details: 4 h, MIA PaCa-2 cells
[1] = top upregulated protein-coding genes
[2] = upregulated gene sets, HALLMARK

Structure (SMILES): Cc1cc(NC(=O)c2cnc(N3CCNCC3)cn2)c2ncccc2c1 [J28, N-(6-methylquinolin-8-yl)-5-(piperazin-1-yl)pyrazine-2-carboxamide]
- log2FC UAP1L1 [1]: 1.26
- log2FC ZC3H12A [1]: 1.27
- ES AMUNDSON_GAMMA_RADIATION_RESPONSE (upregulated gene sets, C2): 0.673
- ES BANDRES_RESPONSE_TO_CARMUSTIN_MGMT_48HR_DN (upregulated gene sets, C2): 0.612
- ES CAMPS_COLON_CANCER_COPY_NUMBER_UP (upregulated gene sets, C2): 0.653
- ES DACOSTA_UV_RESPONSE_VIA_ERCC3_UP (upregulated gene sets, C2): 0.506
- ES DAIRKEE_TERT_TARGETS_UP (upregulated gene sets, C2): 0.528
- ES DEBIASI_APOPTOSIS_BY_REOVIRUS_INFECTION_DN (upregulated gene sets, C2): 0.488
- ES DIRMEIER_LMPl_RESPONSE_EARLY (upregulated gene sets, C2): 0.670
- ES ENK_UV_RESPONSE_KERATINOCYTE_UP (upregulated gene sets, C2): 0.501
- ES FERREIRA_EWINGS_SARCOMA_UNSTABLE_VS_STABLE_DN (upregulated gene sets, C2): 0.623
- ES GINESTIER_BREAST_CANCER_ZNF217_AMPLIFIED_DN (upregulated gene sets, C2): 0.481
- ES HORTON_SREBF_TARGETS (upregulated gene sets, C2): 0.807
- ES KEGG_SYSTEMIC_LUPUS_ERYTHEMATOSUS (upregulated gene sets, C2): 0.661
- ES KIM_ALL_DISORDERS_DURATION_CORR_DN (upregulated gene sets, C2): 0.615
- ES LEONARD_HYPDXIA (upregulated gene sets, C2): 0.716
- ES MARTENS_TRETINOIN_RESPONSE_UP (upregulated gene sets, C2): 0.552
- ES NIKOLSKY_BREAST_CANCER_16P13_AMPLICON (upregulated gene sets, C2): 0.699
- ES NIKOLSKY_BREAST_CANCER_16Q24_AMPLICON (upregulated gene sets, C2): 0.706
- ES QI_HYPOXIA (upregulated gene sets, C2): 0.559
- ES REACTOME_AMYLOIDS (upregulated gene sets, C2): 0.710
- ES REACTOME_CHOLESTEROL_BIOSYNTHESIS (upregulated gene sets, C2): 0.821
- ES REACTOME_PEPTIDE_CHAIN_ELONGATION (upregulated gene sets, C2): 0.564
- ES REACTOME_RNA_POL_I_PROMOTER_OPENING (upregulated gene sets, C2): 0.769
- ES REACTOME_RNA_POL_I_TRANSCRIPTION (upregulated gene sets, C2): 0.622
- ES RICKMAN_METASTASIS_DN (upregulated gene sets, C2): 0.556
- ES SCHMIDT_POR_TARGETS_IN_LIMB_BUD_UP (upregulated gene sets, C2): 0.788
- NES AMUNDSON_GAMMA_RADIATION_RESPONSE (upregulated gene sets, C2): 2.280
- NES BANDRES_RESPONSE_TO_CARMUSTIN_MGMT_48HR_DN (upregulated gene sets, C2): 2.308
- NES CAMPS_COLON_CANCER_COPY_NUMBER_UP (upregulated gene sets, C2): 2.238
- NES DACOSTA_UV_RESPONSE_VIA_ERCC3_UP (upregulated gene sets, C2): 2.272
- NES DAIRKEE_TERT_TARGETS_UP (upregulated gene sets, C2): 2.400
- NES DEBIASI_APOPTOSIS_BY_REOVIRUS_INFECTION_DN (upregulated gene sets, C2): 2.211
- NES DIRMEIER_LMPl_RESPONSE_EARLY (upregulated gene sets, C2): 2.238
- NES ENK_UV_RESPONSE_KERATINOCYTE_UP (upregulated gene sets, C2): 2.338
- NES FERREIRA_EWINGS_SARCOMA_UNSTABLE_VS_STABLE_DN (upregulated gene sets, C2): 2.223
- NES GINESTIER_BREAST_CANCER_ZNF217_AMPLIFIED_DN (upregulated gene sets, C2): 2.203
- NES HORTON_SREBF_TARGETS (upregulated gene sets, C2): 2.353
- NES KEGG_SYSTEMIC_LUPUS_ERYTHEMATOSUS (upregulated gene sets, C2): 2.294
- NES KIM_ALL_DISORDERS_DURATION_CORR_DN (upregulated gene sets, C2): 2.457
- NES LEONARD_HYPDXIA (upregulated gene sets, C2): 2.369
- NES MARTENS_TRETINOIN_RESPONSE_UP (upregulated gene sets, C2): 2.244
- NES NIKOLSKY_BREAST_CANCER_16P13_AMPLICON (upregulated gene sets, C2): 2.231
- NES NIKOLSKY_BREAST_CANCER_16Q24_AMPLICON (upregulated gene sets, C2): 2.371
- NES QI_HYPOXIA (upregulated gene sets, C2): 2.230
- NES REACTOME_AMYLOIDS (upregulated gene sets, C2): 2.374
- NES REACTOME_CHOLESTEROL_BIOSYNTHESIS (upregulated gene sets, C2): 2.387
- NES REACTOME_PEPTIDE_CHAIN_ELONGATION (upregulated gene sets, C2): 2.220
- NES REACTOME_RNA_POL_I_PROMOTER_OPENING (upregulated gene sets, C2): 2.411
- NES REACTOME_RNA_POL_I_TRANSCRIPTION (upregulated gene sets, C2): 2.250
- NES RICKMAN_METASTASIS_DN (upregulated gene sets, C2): 2.370
- NES SCHMIDT_POR_TARGETS_IN_LIMB_BUD_UP (upregulated gene sets, C2): 2.303
- ES HALLMARK_ADIPOGENESIS [2]: 0.383
- ES HALLMARK_ANDROGEN_RESPONSE [2]: 0.356
- ES HALLMARK_APICAL_JUNCTION [2]: 0.359
- ES HALLMARK_APOPTOSIS [2]: 0.390
- ES HALLMARK_BILE_ACID_METABOLISM [2]: 0.361
- ES HALLMARK_CHOLESTEROL_HOMEOSTASIS [2]: 0.656
- ES HALLMARK_COAGULATION [2]: 0.474
- ES HALLMARK_DNA_REPAIR [2]: 0.336
- ES HALLMARK_ESTROGEN_RESPONSE_EARLY [2]: 0.354
- ES HALLMARK_ESTROGEN_RESPONSE_LATE [2]: 0.335
- ES HALLMARK_FATTY_ACID_METABOLISM [2]: 0.392
- ES HALLMARK_GLYCOLYSIS [2]: 0.321
- ES HALLMARK_HEME_METABOLISM [2]: 0.367
- ES HALLMARK_HYPOXIA [2]: 0.479
- ES HALLMARK_MTORC1_SIGNALING [2]: 0.436
- ES HALLMARK_MYOGENESIS [2]: 0.560
- ES HALLMARK_NOTCH_SIGNALING [2]: 0.494
- ES HALLMARK_OXIDATIVE_PHOSPHORYLATION [2]: 0.351
- ES HALLMARK_P53_PATHWAY [2]: 0.471
- ES HALLMARK_PEROXISOME [2]: 0.379
- ES HALLMARK_PI3K_AKT_MTOR_SIGNALING [2]: 0.426
- ES HALLMARK_UNFOLDED_PROTEIN_RESPONSE [2]: 0.433
- ES HALLMARK_UV_RESPONSE_UP [2]: 0.436
- ES HALLMARK_WNT_BETA_CATENIN_SIGNALING [2]: 0.481
- ES HALLMARK_XENOBIOTIC_METABOLISM [2]: 0.348
- NES HALLMARK_ADIPOGENESIS [2]: 1.653
- NES HALLMARK_ANDROGEN_RESPONSE [2]: 1.381
- NES HALLMARK_APICAL_JUNCTION [2]: 1.422
- NES HALLMARK_APOPTOSIS [2]: 1.615
- NES HALLMARK_BILE_ACID_METABOLISM [2]: 1.330
- NES HALLMARK_CHOLESTEROL_HOMEOSTASIS [2]: 2.374
- NES HALLMARK_COAGULATION [2]: 1.628
- NES HALLMARK_DNA_REPAIR [2]: 1.407
- NES HALLMARK_ESTROGEN_RESPONSE_EARLY [2]: 1.458
- NES HALLMARK_ESTROGEN_RESPONSE_LATE [2]: 1.358
- NES HALLMARK_FATTY_ACID_METABOLISM [2]: 1.605
- NES HALLMARK_GLYCOLYSIS [2]: 1.363
- NES HALLMARK_HEME_METABOLISM [2]: 1.548
- NES HALLMARK_HYPOXIA [2]: 1.984
- NES HALLMARK_MTORC1_SIGNALING [2]: 1.917
- NES HALLMARK_MYOGENESIS [2]: 2.098
- NES HALLMARK_NOTCH_SIGNALING [2]: 1.473
- NES HALLMARK_OXIDATIVE_PHOSPHORYLATION [2]: 1.548
- NES HALLMARK_P53_PATHWAY [2]: 1.986
- NES HALLMARK_PEROXISOME [2]: 1.483
- NES HALLMARK_PI3K_AKT_MTOR_SIGNALING [2]: 1.634
- NES HALLMARK_UNFOLDED_PROTEIN_RESPONSE [2]: 1.739
- NES HALLMARK_UV_RESPONSE_UP [2]: 1.773
- NES HALLMARK_WNT_BETA_CATENIN_SIGNALING [2]: 1.483
- NES HALLMARK_XENOBIOTIC_METABOLISM [2]: 1.415
